Test results as given in article PMC8016998, “Identification of potential therapeutic antimicrobial peptides against Acinetobacter baumannii in a mouse model of pneumonia” (Scientific Reports, 2021).
Read-outs that look alike come from different tables or passages of the source. No end group written: not given here.

Legend:
[1] = system: MDRAB clinical strain AK29; format: cell-based, Acinetobacter baumannii
[2] = system: MDRAB clinical strain D29; format: cell-based, Acinetobacter baumannii
Description: (§1) MBC were determined by extending the MIC procedure in sterilized 96-well polypropylene microtiter plates according to the broth microdilution guidelines of the Clinical and Laboratory Standards Institute with some modification[47]. […] In addition, 10 µL was drawn from each well with no visible turbidity onto LB agar plates and incubated for 24 h at 37 °C. The lowest concentration showing no visible growth on agar subculture was used as the MBC value. All experiments were performed in triplicate.

[3] = system: MDRAB clinical strain Y92; format: cell-based, Acinetobacter baumannii
Description: as §1

MDRAB clinical strains = format: cell-based, Acinetobacter baumannii
Description: as §1

[4] = system: MDRAB clinical strain L87; format: cell-based, Acinetobacter baumannii
[5] = system: MDRAB clinical strain AO80; format: cell-based, Acinetobacter baumannii
[6] = system: MDRAB clinical strain AL87; format: cell-based, Acinetobacter baumannii
[7] = system: MDRAB clinical strain AF93; format: cell-based, Acinetobacter baumannii
Description: as §1

[8] = system: MDRAB clinical strain AZ93; format: cell-based, Acinetobacter baumannii
Description: as §1

[9] = system: MDRAB clinical strain AE5; format: cell-based, Acinetobacter baumannii
Description: as §1

[10] = system: MDRAB clinical strain AG51; format: cell-based, Acinetobacter baumannii
Description: as §1

MDRAB clinical strain K2 = format: cell-based, Acinetobacter baumannii
Description: as §1

[11] = system: MDRAB clinical strain O59; format: cell-based, Acinetobacter baumannii
Description: as §1

[12] = system: MDRAB clinical strain AF11; format: cell-based, Acinetobacter baumannii
Description: as §1

[13] = system: MDRAB clinical strain AE6; format: cell-based, Acinetobacter baumannii
[14] = system: MDRAB clinical strain J49; format: cell-based, Acinetobacter baumannii
Description: as §1

[15] = system: MDRAB clinical strain AF12; format: cell-based, Acinetobacter baumannii
Description: as §1

[16] = system: MDRAB clinical strain W11; format: cell-based, Acinetobacter baumannii
Description: as §1

[17] = system: MDRAB clinical strain AK61; format: cell-based, Acinetobacter baumannii
[18] = system: MDRAB clinical strain AS40; format: cell-based, Acinetobacter baumannii
Description: as §1

[19] = system: MDRAB clinical strain AN10; format: cell-based, Acinetobacter baumannii
Description: as §1

[20] = system: Acinetobacter baumannii 17,978; format: cell-based;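 note: CLSI broth microdilution in 96-well polypropylene plates, MBC taken as lowest concentration giving no growth when clear wells were subcultured on LB agar for 24 h at 37 °C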
Description: as §1

[21] = system: Acinetobacter baumannii 19,606; format: cell-based
[22] = system: MDRAB clinical strain U80; format: cell-based, Acinetobacter baumannii
[23] = system: MDRAB clinical strain U95; format: cell-based, Acinetobacter baumannii
Description: as §1

[24] = 10 µL from wells without turbidity onto LB agar, 24 h at 37 °C, triplicate

GYNYAKKLANLAKKFANALW-NH2 [GW-H1a]
8 µg/mL: MBC ([1]; 24 h) | MIC ([1]; 24 h) | MBC ([3]; 24 h) | MIC ([3]; 24 h) | MBC ([5]; 24 h) | MIC ([5]; 24 h) | MBC ([6]; 24 h) | MIC ([6]; 24 h) | MBC ([7]; 24 h) | MIC ([7]; 24 h) | MBC ([8]; 24 h) | MIC ([8]; 24 h) | MBC ([10]; 24 h) | MIC ([10]; 24 h) | MIC ([12]; 24 h) | MIC ([13]; 24 h) | MBC ([14]; 24 h) | MIC ([14]; 24 h) | MIC ([15]; 24 h) | MBC ([17]; 24 h) | MIC ([17]; 24 h) | MBC ([18]; 24 h) | MIC ([18]; 24 h) | MBC ([19]; 24 h) | MIC ([19]; 24 h)
32 µg/mL: MBC ([2]; 24 h) | MBC ([4]; 24 h) | MBC ([11]; 24 h) | MBC ([20]; 17,978, 24 h) | MIC ([20]; 17,978, 24 h) | MBC ([22]; 24 h) | MBC ([23]; 24 h)
8 to 16 µg/mL: MIC (MDRAB clinical strains; 24 h)
8 to 32 µg/mL: MBC (MDRAB clinical strains; 24 h)
16 µg/mL: MIC ([2]; 24 h) | MIC ([4]; 24 h) | MBC ([9]; 24 h) | MIC ([9]; 24 h) | MBC (MDRAB clinical strain K2; 24 h) | MIC (MDRAB clinical strain K2; 24 h) | MIC ([11]; 24 h) | MBC ([12]; 24 h) | MBC ([13]; 24 h) | MBC ([15]; 24 h) | MBC ([16]; 24 h) | MIC ([16]; 24 h) | MBC ([21]; 19,606, 24 h) | MIC ([21]; 19,606, 24 h) | MIC ([22]; 24 h) | MIC ([23]; 24 h)

CC[C@H](C)[C@H](NC(=O)CNC(=O)[C@@H](NC(=O)[C@H](CCCCN)NC(=O)[C@H](CCCCN)NC(=O)[C@H](Cc1ccccc1)NC(=O)[C@H](CC(C)C)NC(=O)[C@H](CCCCN)NC(=O)[C@H](Cc1c[nH]c2ccccc12)NC(=O)[C@@H](N)CCCCN)[C@@H](C)CC)C(=O)NCC(=O)N[C@@H](C)C(=O)N[C@H](C(=O)N[C@@H](CC(C)C)C(=O)N[C@@H](CCCCN)C(=O)N[C@H](C(=O)N[C@@H](CC(C)C)C(=O)N[C@H](C(=O)N[C@H](C(=O)NCC(N)=O)[C@@H](C)O)[C@@H](C)O)C(C)C)C(C)C [CAME]
16 µg/mL: MBC ([1]; strain AK29, subculture on LB agar, 24 h 37 °C) | MBC ([5]; strain AO80, subculture on LB agar, 24 h 37 °C) | MIC ([10]; strain AG51, broth microdilution, LB, 24 h 37 °C) | MBC (MDRAB clinical strain K2; strain K2, subculture on LB agar, 24 h 37 °C) | MIC ([12]; strain AF11, broth microdilution, LB, 24 h 37 °C) | MIC ([14]; strain J49, broth microdilution, LB, 24 h 37 °C) | MIC ([15]; strain AF12, broth microdilution, LB, 24 h 37 °C) | MBC ([15]; strain AF12, subculture on LB agar, 24 h 37 °C) | MIC ([16]; strain W11, broth microdilution, LB, 24 h 37 °C) | MBC ([17]; strain AK61, subculture on LB agar, 24 h 37 °C) | MIC ([19]; strain AN10, broth microdilution, LB, 24 h 37 °C) | MIC ([22]; strain U80, broth microdilution, LB, 24 h 37 °C)
8 to 32 µg/mL: MIC (MDRAB clinical strains; range over MDRAB clinical strains (details in Supplementary Table 2), broth microdilution, LB, 24 h 37 °C)
64 µg/mL: MBC ([4]; strain L87, subculture on LB agar, 24 h 37 °C) | MBC ([11]; strain O59, subculture on LB agar, 24 h 37 °C) | MBC ([23]; strain U95, subculture on LB agar, 24 h 37 °C)
8 µg/mL: MIC ([1]; strain AK29, broth microdilution, LB, 24 h 37 °C) | MIC ([5]; strain AO80, broth microdilution, LB, 24 h 37 °C) | MIC ([8]; strain AZ93, broth microdilution, LB, 24 h 37 °C) | MBC ([8]; strain AZ93, subculture on LB agar, 24 h 37 °C) | MIC (MDRAB clinical strain K2; strain K2, broth microdilution, LB, 24 h 37 °C) | MIC ([17]; strain AK61, broth microdilution, LB, 24 h 37 °C) | MIC ([18]; strain AS40, broth microdilution, LB, 24 h 37 °C) | MBC ([18]; strain AS40, subculture on LB agar, 24 h 37 °C)
32 µg/mL: MIC ([2]; strain D29, broth microdilution, LB, 24 h 37 °C) | MBC ([2]; strain D29, subculture on LB agar, 24 h 37 °C) | MIC ([3]; strain Y92, broth microdilution, LB, 24 h 37 °C) | MBC ([3]; strain Y92, subculture on LB agar, 24 h 37 °C) | MIC ([4]; strain L87, broth microdilution, LB, 24 h 37 °C) | MIC ([6]; strain AL87, broth microdilution, LB, 24 h 37 °C) | MBC ([6]; strain AL87, subculture on LB agar, 24 h 37 °C) | MIC ([7]; strain AF93, broth microdilution, LB, 24 h 37 °C) | MBC ([7]; strain AF93, subculture on LB agar, 24 h 37 °C) | MIC ([9]; strain AE5, broth microdilution, LB, 24 h 37 °C) | MBC ([9]; strain AE5, subculture on LB agar, 24 h 37 °C) | MBC ([10]; strain AG51, subculture on LB agar, 24 h 37 °C) | MIC ([11]; strain O59, broth microdilution, LB, 24 h 37 °C) | MBC ([12]; strain AF11, subculture on LB agar, 24 h 37 °C) | MIC ([13]; strain AE6, broth microdilution, LB, 24 h 37 °C) | MBC ([13]; strain AE6, subculture on LB agar, 24 h 37 °C) | MBC ([14]; strain J49, subculture on LB agar, 24 h 37 °C) | MBC ([16]; strain W11, subculture on LB agar, 24 h 37 °C) | MBC ([19]; strain AN10, subculture on LB agar, 24 h 37 °C) | MBC [20, 24] | MIC ([20]; broth microdilution (CLSI, modified), LB medium, 5 × 10^5 CFU/mL, 24 h at 37 °C, lowest concentration with no visible growth, triplicate) | MBC [21, 24] | MIC ([21]; broth microdilution (CLSI, modified), LB medium, 5 × 10^5 CFU/mL, 24 h at 37 °C, triplicate) | MBC ([22]; strain U80, subculture on LB agar, 24 h 37 °C) | MIC ([23]; strain U95, broth microdilution, LB, 24 h 37 °C)
8 to 64 µg/mL: MBC (MDRAB clinical strains; range over MDRAB clinical strains (details in Supplementary Table 2), subculture on LB agar, 24 h 37 °C)
